From US12570655B2, “Cysteine covalent modifiers of AKT1 and uses thereof” (Terremoto Biosciences, Inc., priority 2023, dated 2026)

Tests used:
Format in all cases: cell-based
AKT2 = target: T1, AKT2 (Homo sapiens, UniProt P31751); assay: Live cell AKT2 target engagement by NanoBRET competitive probe displacement; settings: HEK293 cells transfected with kinase-NanoLuciferase fusion, 2 h at 37° C.
T1 construct: expressed in transfected cells; host or cells: HEK293
How it was run: (§1)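 Live-cell competitive tracer displacement in HEK293 expressing NanoLuciferase-tagged kinase. Compound and ATP-competitive tracer (~EC50) are co-incubated 2 h at 37 °C; BRET (E600/E460) gives IC50.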

[1] = test system: LAPC4 prostate cancer cells; assay: Antiproliferative effects in LAPC4 cells (CellTiter Glo); settings: Homo sapiens, LAPC4, 72 h, LAPC4 cells (AKT1 E17K allele), read-out: LAPC4 proliferation IC50
How it was run: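 Cells grown in IMDM supplemented with 12% FBS plus 1% P/S were treated for 72 h with DMSO-dissolved compounds. ATP-based luminescence was fitted to a log(inhibitor) versus response Hill model, giving IC50.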

AKT1 E17K = target: T2, AKT1 E17K (Homo sapiens, UniProt P31749, E17K); assay: Live cell AKT1 E17K target engagement by NanoBRET competitive probe displacement; settings: HEK293 cells transfected with kinase-NanoLuciferase fusion, 2 h at 37° C.
T2 construct: expressed in transfected cells; host or cells: HEK293
T2 sequence (P31749 whole entry E17K, the tested form may be a part): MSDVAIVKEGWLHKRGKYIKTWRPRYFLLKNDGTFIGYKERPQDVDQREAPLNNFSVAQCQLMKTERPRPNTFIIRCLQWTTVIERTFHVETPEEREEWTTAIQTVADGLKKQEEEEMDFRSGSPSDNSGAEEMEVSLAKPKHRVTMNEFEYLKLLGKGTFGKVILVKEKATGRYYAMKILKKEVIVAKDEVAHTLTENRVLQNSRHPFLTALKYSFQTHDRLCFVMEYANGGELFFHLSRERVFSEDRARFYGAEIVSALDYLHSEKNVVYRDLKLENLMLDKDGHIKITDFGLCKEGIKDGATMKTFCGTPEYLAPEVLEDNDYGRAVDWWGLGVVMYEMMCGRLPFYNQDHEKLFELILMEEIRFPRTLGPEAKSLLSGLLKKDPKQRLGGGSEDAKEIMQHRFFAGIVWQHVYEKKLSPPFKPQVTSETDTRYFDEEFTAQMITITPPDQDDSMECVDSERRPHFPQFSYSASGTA
How it was run: as §1

AKT1 WT = target: T3, AKT1 WT (Homo sapiens, UniProt P31749); assay: Live cell AKT1 WT target engagement by NanoBRET competitive probe displacement; settings: HEK293 cells transfected with kinase-NanoLuciferase fusion, 2 h at 37° C.
T3 construct: expressed in transfected cells; host or cells: HEK293
T3 sequence (P31749 whole entry, the tested form may be a part): as the sequence (P31749 whole entry E17K, the tested form may be a part) above, with K17E counted along it
How it was run: as §1

T1 sequence (P31751 whole entry, the tested form may be a part): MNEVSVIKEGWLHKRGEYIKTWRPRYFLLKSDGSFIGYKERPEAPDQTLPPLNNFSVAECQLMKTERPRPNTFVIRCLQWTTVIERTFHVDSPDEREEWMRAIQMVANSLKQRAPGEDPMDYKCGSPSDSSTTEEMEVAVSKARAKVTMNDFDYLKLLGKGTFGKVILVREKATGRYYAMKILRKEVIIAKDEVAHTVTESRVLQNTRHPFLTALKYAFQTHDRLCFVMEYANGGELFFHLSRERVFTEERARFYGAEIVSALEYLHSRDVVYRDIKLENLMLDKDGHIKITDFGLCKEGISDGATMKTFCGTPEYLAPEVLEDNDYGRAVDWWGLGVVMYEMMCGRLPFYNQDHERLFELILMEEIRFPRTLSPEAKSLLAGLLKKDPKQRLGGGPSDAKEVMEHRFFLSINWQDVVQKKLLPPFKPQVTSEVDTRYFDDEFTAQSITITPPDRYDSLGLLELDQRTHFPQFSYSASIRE

Row | SMILES | IC50 (AKT2) [nM] | IC50 [1] [nM] | IC50 (AKT1 E17K) [nM] | IC50 (AKT1 WT) [nM]
1 | C=CC(=O)N1CCC(N[C@H]2CCc3cc(-n4c(-c5cccnc5N)nc5ccc(OC6CC6)nc54)ccc32)CC1 [Example 198, 1-(4-{[(1S)-5-[2-(2-aminopyridin-3-yl)-5-cyclopropoxyimidazo[4,5-b]pyridin-3-yl]-2,3-dihydro-1H-inden-1-yl]amino}piperidin-1-yl)prop-2-en-1-one] | 27 | 461 | 16 | 835
2 | C=CC(=O)N1CCC(N[C@H]2CCc3cc(-n4c(-c5cccnc5N)nc5cc(C6CC6)cnc54)ccc32)CC1 [Example 199, 1-(4-{[(1S)-5-[2-(2-aminopyridin-3-yl)-6-cyclopropylimidazo[4,5-b]pyridin-3-yl]-2,3-dihydro-1H-inden-1-yl]amino}piperidin-1-yl)prop-2-en-1-one] | 802 | 2380 | 67.4 | 603
3 | C=CC(=O)N1CCC(N[C@H]2CCc3cc(-n4c(-c5cccnc5N)nc5ccc(N6CCCOCC6)nc54)ccc32)CC1 [Example 205, 1-(4-{[(1S)-5-[2-(2-aminopyridin-3-yl)-5-(1,4-oxazepan-4-yl)imidazo[4,5-b]pyridin-3-yl]-2,3-dihydro-1H-inden-1-yl]amino}piperidin-1-yl)prop-2-en-1-one] | 835 | 1190 | 112 | 1740
4 | C=CC(=O)N1CCC(N[C@H]2CCc3cc(-n4c(-c5cccnc5N)nc5ccc(-n6ccc(OC)n6)nc54)ccc32)CC1 [Example 206, 1-(4-{[(1S)-5-[2-(2-aminopyridin-3-yl)-5-(3-methoxypyrazol-1-yl)imidazo[4,5-b]pyridin-3-yl]-2,3-dihydro-1H-inden-1-yl]amino}piperidin-1-yl)prop-2-en-1-one] | 24.8 | 62.7 | 7.65 | 80.5
5 | C=CC(=O)N1CCC(N[C@H]2CCc3cc(-n4c(-c5cccnc5N)nc5ccc(-c6ccccn6)nc54)ccc32)CC1 [Example 207, (S)-1-(4-((5-(2-(2-aminopyridin-3-yl)-5-(pyridin-2-yl)-3H-imidazo[4,5-b]pyridin-3-yl)-2,3-dihydro-1H-inden-1-yl)amino)piperidin-1-yl)prop-2-en-1-one] | 35.2 | 114 | 7.07 | 48.8
6 | C=CC(=O)N1CCC(N[C@H]2CCc3cc(-n4c(-c5cccnc5N)nc5ccc(-n6ccc(C7CC7)n6)nc54)ccc32)CC1 [Example 208, (S)-1-(4-((5-(2-(2-aminopyridin-3-yl)-5-(3-cyclopropyl-1H-pyrazol-1-yl)-3H-imidazo[4,5-b]pyridin-3-yl)-2,3-dihydro-1H-inden-1-yl)amino)piperidin-1-yl)prop-2-en-1-one] | 26.1 | 69.8 | 5.74 | 77.8
7 | C=CC(=O)N1CCC(N[C@H]2CCc3cc(-n4c(-c5cccnc5N)nc5cc(C(F)(F)F)cnc54)ccc32)CC1 [Example 216, 1-(4-{[(1S)-5-[2-(2-aminopyridin-3-yl)-6-(trifluoromethyl)imidazo[4,5-b]pyridin-3-yl]-2,3-dihydro-1H-inden-1-yl]amino}piperidin-1-yl)prop-2-en-1-one] | 352 | 3960 | 140 | 2350
8 | C=CC(=O)N1CC2COC(C1)C2N[C@H]1CCc2cc(-n3c(-c4cccnc4N)nc4ccc(-n5cccn5)nc43)ccc21 (stereo partly drawn) [Example 224, 1-(8-{[(1S)-5-[2-(2-aminopyridin-3-yl)-5-(pyrazol-1-yl)imidazo[4,5-b]pyridin-3-yl]-2,3-dihydro-1H-inden-1-yl]amino}-6-oxa-3-azabicyclo[3.2.1]octan-3-yl)prop-2-en-1-one] | 256 | 719 | 70.6 | 1240
9 | C=CC(=O)N1CCC(N[C@H]2CCc3cc(-n4c(-c5cccnc5N)nc5ccc(-c6cnn(C(F)(F)F)c6)nc54)ccc32)CC1 [Example 225, 1-(4-{[(1S)-5-[2-(2-aminopyridin-3-yl)-5-[1-(trifluoromethyl)pyrazol-4-yl]imidazo[4,5-b]pyridin-3-yl]-2,3-dihydro-1H-inden-1-yl]amino}piperidin-1-yl)prop-2-en-1-one] | 239 | 394 | 31.8 | 308
10 | C=CC(=O)N1CCC(N[C@H]2CCc3cc(-n4c(-c5cccnc5N)nc5ccc(N6CC[C@H](F)C6)nc54)ccc32)CC1 [Example 226, 1-(4-{[(1S)-5-[2-(2-aminopyridin-3-yl)-5-[(3S)-3-fluoropyrrolidin-1-yl]imidazo[4,5-b]pyridin-3-yl]-2,3-dihydro-1H-inden-1-yl]amino}piperidin-1-yl)prop-2-en-1-one] | 68.9 | 276 | 22.5 | 105
11 | C=CC(=O)N1CCC(N[C@H]2CCc3cc(-n4c(-c5cccnc5N)nc5ccc(C6CC(F)(F)C6)nc54)ccc32)CC1 [Example 227, 1-(4-{[(1S)-5-[2-(2-aminopyridin-3-yl)-5-(3,3-difluorocyclobutyl)imidazo[4,5-b]pyridin-3-yl]-2,3-dihydro-1H-inden-1-yl]amino}piperidin-1-yl)prop-2-en-1-one] | 283 | 540 | 39 | 703
12 | C=CC(=O)N1CCC(N[C@H]2CCc3cc(-n4c(-c5cccnc5N)nc5ccc(N6CCC(F)CC6)nc54)ccc32)CC1 [Example 238, 1-(4-{[(1S)-5-[2-(2-aminopyridin-3-yl)-5-(4-fluoropiperidin-1-yl)imidazo[4,5-b]pyridin-3-yl]-2,3-dihydro-1H-inden-1-yl]amino}piperidin-1-yl)prop-2-en-1-one] | 666 | 667 | 37.2 | 679
13 | C=CC(=O)N1CCC(N[C@H]2CCc3cc(-n4c(-c5cccs5)nc5ccc(-n6cccn6)nc54)ccc32)CC1 [Example 239, 1-(4-{[(1S)-5-[5-(pyrazol-1-yl)-2-(thiophen-2-yl)imidazo[4,5-b]pyridin-3-yl]-2,3-dihydro-1H-inden-1-yl]amino}piperidin-1-yl)prop-2-en-1-one] | 334 | 1030 | 43.2 | 1450
14 | C=CC(=O)N1CCC(N[C@H]2CCc3cc(-n4c(-c5cccc(F)c5)nc5ccc(-n6cccn6)nc54)ccc32)CC1 [Example 240, 1-(4-{[(1S)-5-[2-(3-fluorophenyl)-5-(pyrazol-1-yl)imidazo[4,5-b]pyridin-3-yl]-2,3-dihydro-1H-inden-1-yl]amino}piperidin-1-yl)prop-2-en-1-one] | 309 | 1040 | 42.6 | 2540
15 | C=CC(=O)N1CCC(N[C@H]2CCc3cc(-n4c(-c5ccccc5F)nc5ccc(-n6cccn6)nc54)ccc32)CC1 [Example 241, 1-(4-{[(1S)-5-[2-(2-fluorophenyl)-5-(pyrazol-1-yl)imidazo[4,5-b]pyridin-3-yl]-2,3-dihydro-1H-inden-1-yl]amino}piperidin-1-yl)prop-2-en-1-one] | 18.8 | 77.3 | 5.56 | 205
